This note sets out measurements from ChEMBL document CHEMBL5380814, “Targeting Receptor-Interacting Protein Kinase 1 by Novel Benzothiazole Derivatives: Treatment of Acute Lung Injury through the Necroptosis Pathway” (J Med Chem, 2023).

Each structure is given as a SMILES string. pEC50, pKd: −log10 of the molar value. Active and inactive are the calls of the source. No cut-off for these calls is given here. Some results are limits rather than exact numbers.

The test system of experiment [1] is HT-29. The experiment can be described thus: Anti-necroptotic activity in human HT-29 cells assessed as inhibition of human TNFalpha/Smac mimetic/Z-VAD-FMK induced necroptosis preincubated with compound for 16 to 24 hrs followed by TSZ stimulation for 12 hrs measured by cell-titre glo luminescent cell viability assay. In kind it is functional, cell-based.
The subject of experiment [2] is HT-29. The experiment can be described thus: Anti-necroptotic activity in human HT-29 cells assessed as inhibition of human TNFalpha/Smac mimetic/Z-VAD-FMK induced necroptosis preincubated with compound followed by TSZ stimulation for 12 hrs. It is filed as functional, cell-based.
Experiment [3] addresses Receptor-interacting serine/threonine-protein kinase 3 (Homo sapiens, UniProt Q9Y572). Briefly: Binding affinity to human wildtype full length RIPK3 (M1 to Q307 residues) expressed in bacterial expression system assessed as dissociation constant by kinome scan kd select based qPCR analysis. On the technique in general: Real-time PCR tracks product formation cycle by cycle.

For experiment [4], the system named is HT-29. The experiment can be described thus: Anti-necroptotic activity in human HT-29 cells assessed as inhibition of human TNFalpha/Smac mimetic/Z-VAD-FMK induced necroptosis preincubated with compound upto 50 nM for 16 to 24 hrs followed by TSZ stimulation for 12 hrs measured by cell-titre glo luminescent cell viability assay. To be noted: time 28-36 hrs. In kind it is functional, cell-based.

Experiment [5] concerns HT-29. The experiment can be described thus: Anti-necroptotic activity in human HT-29 cells assessed as protection against human TNFalpha/Smac mimetic/Z-VAD-FMK induced necroptosis preincubated with compound at 50 nM for 16 to 24 hrs followed by TSZ stimulation for 12 hrs measured by cell-titre glo luminescent cell viability assay relative to control. In kind it is functional. To be noted: time 28-36 hrs.

Experiment [6] has as its system HT-29. The experiment can be described thus: Anti-necroptotic activity in human HT-29 cells assessed as protection against human TNFalpha/Smac mimetic induced necroptosis preincubated with compound upto 10 uM for 16 to 24 hrs followed by TS stimulation for 36 hrs measured by cell-titre glo luminescent cell viability assay. It is filed as functional, cell-based. To be noted: time 52-60 hrs.

The test system of experiment [7] is L929. The experiment can be described thus: Anti-necroptotic activity in mouse L929 cells assessed as inhibition of mouse TNFalpha/Z-VAD-FMK induced necroptosis preincubated with compound for 16 to 24 hrs followed by TZ stimulation for 12 hrs measured by cell-titre glo luminescent cell viability assay. It is filed as functional, cell-based. The note with it: dose 6.3-800 nM, time 28-36 hrs.

Experiment [8] has as its target T1, Receptor-interacting serine/threonine-protein kinase 1 (Homo sapiens) (UniProt Q13546).
T1 sequence (whole entry): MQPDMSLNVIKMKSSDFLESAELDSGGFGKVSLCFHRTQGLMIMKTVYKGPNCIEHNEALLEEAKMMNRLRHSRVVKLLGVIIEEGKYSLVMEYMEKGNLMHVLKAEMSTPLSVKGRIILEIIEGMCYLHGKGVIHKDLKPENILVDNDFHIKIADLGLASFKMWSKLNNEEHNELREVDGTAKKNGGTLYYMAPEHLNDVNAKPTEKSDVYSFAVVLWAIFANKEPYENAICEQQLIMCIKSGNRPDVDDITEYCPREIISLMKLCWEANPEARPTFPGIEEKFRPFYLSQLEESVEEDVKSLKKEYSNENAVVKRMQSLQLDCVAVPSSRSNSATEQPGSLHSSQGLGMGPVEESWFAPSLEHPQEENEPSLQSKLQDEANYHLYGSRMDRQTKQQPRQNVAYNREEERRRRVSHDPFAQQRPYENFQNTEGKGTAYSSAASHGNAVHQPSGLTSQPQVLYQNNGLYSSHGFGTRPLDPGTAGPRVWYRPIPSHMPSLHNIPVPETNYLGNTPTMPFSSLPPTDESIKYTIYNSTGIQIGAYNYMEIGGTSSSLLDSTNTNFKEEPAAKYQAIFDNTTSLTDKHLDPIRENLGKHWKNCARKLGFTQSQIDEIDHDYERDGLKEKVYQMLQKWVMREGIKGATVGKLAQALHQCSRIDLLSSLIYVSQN
The experiment can be described thus: Inhibition of RIPK1 phosphorylation in TSZ-induced human HT-29 cells assessed as blocking of TSZ-induced necrosome formation at 0.5 uM pretreated with compound for 6 hrs followed by TSZ stimulation for 6 hrs measured by Western analysis. It is filed as cell-based. The note with it: time 12.0 hrs.

Experiment [9] addresses T2, Mixed lineage kinase domain-like protein (Homo sapiens) (UniProt Q8NB16).
T2 sequence (whole entry): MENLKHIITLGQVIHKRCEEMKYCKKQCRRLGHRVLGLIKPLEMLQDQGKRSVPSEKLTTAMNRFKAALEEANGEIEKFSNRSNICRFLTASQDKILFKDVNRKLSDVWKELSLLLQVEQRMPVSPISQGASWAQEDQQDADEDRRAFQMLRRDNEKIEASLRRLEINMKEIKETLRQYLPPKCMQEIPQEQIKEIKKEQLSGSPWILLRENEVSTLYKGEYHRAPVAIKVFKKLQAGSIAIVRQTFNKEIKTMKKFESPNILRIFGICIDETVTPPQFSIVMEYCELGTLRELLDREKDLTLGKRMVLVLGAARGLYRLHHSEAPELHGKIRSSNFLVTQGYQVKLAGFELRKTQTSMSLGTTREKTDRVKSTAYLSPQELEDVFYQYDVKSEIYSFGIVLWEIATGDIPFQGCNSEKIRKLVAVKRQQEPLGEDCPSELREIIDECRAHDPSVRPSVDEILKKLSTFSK
Briefly: Inhibition of MLKLphosphorylation in TSZ-induced human HT-29 cells assessed as blocking of TSZ-induced necrosome formation upto 1 uM pretreated with compound for 6 hrs followed by TSZ stimulation for 6 hrs measured by Western analysis. In kind it is cell-based. The note with it: time 12.0 hrs.

Experiment [10] has as its system Mus musculus. Briefly: In vivo anti-necrotptic activity in mTNFalpha induced C57BL/6J SIRS mouse model assessed as protection from body temperature loss pretreated at 20 mg/kg, po for 1 hr followed by mTNFalpha/Z-VAD-FMK administration measured after 45 mins by electric thermometer. To be noted: time 105.0 min. In kind it is functional, organism-based.
Experiment [11] relates to Mus musculus. The experiment can be described thus: In vivo anti-necrotptic activity in mTNFalpha induced C57BL/6J SIRS mouse model assessed as survival rate pretreated at 20 mg/kg, po for 1 hr followed by mTNFalpha/Z-VAD-FMK administration measured after 40 mins relative to control. In kind it is functional. The note with it: time 100 min, 1.667 h.
The subject of experiment [12] is Mus musculus. The experiment can be described thus: In vivo anti-inflammatory activity in NNK induced induced C57BL/6J ALI mouse model assessed as mild alveolar thickening in lung pretreated at 25 to 100 mg/kg, ip for 1 hr followed by NNK administration by HE staining analysis. It is filed as functional, organism-based. The note with it: dose 25-100 mg/kg.
Experiment [13] concerns Mus musculus. Briefly: In vivo anti-inflammatory activity in NNK induced induced C57BL/6J ALI mouse model assessed as decrease in inflammatory cell infiltration pretreated at 25 to 100 mg/kg, ip for 1 hr followed by NNK administration by HE staining analysis. It is filed as functional, organism-based. The note with it: dose 25-100 mg/kg.
Experiment [14] deals with Mus musculus. Briefly: In vivo anti-inflammatory activity in NNK induced induced C57BL/6J ALI mouse model assessed as decrease in bronchoalveolar lavage fluid (BALF) total protein pretreated intraperitoneally for 1 hr followed by NNK administration. It is filed as functional, organism-based. The note with it: dose 25-100 mg/kg, route ip.
Experiment [15] relates to Mus musculus. Briefly: In vivo anti-inflammatory activity in NNK induced induced C57BL/6J ALI mouse model assessed as decrease in lung TNF-alpha mRNA level pretreated at 25 to 100 mg/kg, ip for 1 hr followed by NNK administration. It is filed as functional, organism-based. The note with it: dose 25-100 mg/kg.
The subject of experiment [16] is Mus musculus. The experiment can be described thus: In vivo anti-necrotoptic activity in NNK induced induced C57BL/6J ALI mouse model assessed as reduction in RIPK1 phosphorylation pretreated at 25 to 100 mg/kg, ip for 1 hr followed by NNK administration. In kind it is functional, organism-based. The note with it: dose 25-100 mg/kg.

Receptor-interacting serine/threonine-protein kinase 3, sequence (Q9Y572 whole entry, the tested form may be a part): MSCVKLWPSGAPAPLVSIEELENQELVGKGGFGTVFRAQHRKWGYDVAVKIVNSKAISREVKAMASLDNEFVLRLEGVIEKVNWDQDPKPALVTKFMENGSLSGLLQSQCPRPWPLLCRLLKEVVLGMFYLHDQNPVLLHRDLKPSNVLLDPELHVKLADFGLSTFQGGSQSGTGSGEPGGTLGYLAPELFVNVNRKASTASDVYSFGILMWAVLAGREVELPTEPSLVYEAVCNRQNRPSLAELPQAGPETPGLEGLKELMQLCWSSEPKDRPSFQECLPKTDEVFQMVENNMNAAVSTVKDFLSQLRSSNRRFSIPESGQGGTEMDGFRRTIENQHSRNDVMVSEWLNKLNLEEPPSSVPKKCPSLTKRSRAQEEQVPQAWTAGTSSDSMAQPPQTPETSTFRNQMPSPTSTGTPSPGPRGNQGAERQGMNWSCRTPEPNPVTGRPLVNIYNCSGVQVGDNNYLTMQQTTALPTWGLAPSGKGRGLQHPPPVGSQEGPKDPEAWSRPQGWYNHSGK

On to `CCS(=O)(=O)NC1CCC(C(=O)Nc2nc3cc(F)c(Oc4ccc(F)c(NC(=O)Cc5cccc(C(F)(F)F)c5)c4)cc3s2)CC1` (stereo unspecified), for which, in [1], the pEC50 was 7.65. Further, the outcome in experiment [2] and in experiment [6] was inactive. For the same compound, the pKd in [3] was below 5.00. Further, the Activity result in experiment [4] is “Dose-Dependent Effect”; in experiment [5], 100%; in [7], “Dose-Dependent Effect”; in experiment [11], 100%; in experiment [14], “Dose-Dependent Effect”. Moreover, the inhibition entry in experiment [8] and in experiment [9] was “Active” each time. The result in [10], in experiment [12], in experiment [13], in [15] and in [16] was Active.

Usually pEC50 stands for −log10 of the EC50, conventionally taken in molar units. One may read the pKd as −log10 of the Kd, conventionally taken in molar units.
